We go through 16 molecules from patent US11666658B2, “Rifamycin analogs and antibody-drug conjugates thereof” (Regeneron Pharmaceuticals, Inc., priority 2018, dated 2023).

What all share (format): cell-based, Staphylococcus aureus
The test system of experiment [1] is intracellular S. aureus NRS384 in THP-1 macrophages. In words: Intracellular killing assay 1 (rifamycin analogs, S. aureus in THP-1 macrophages). The conditions noted are these: for MIC: Staphylococcus aureus, NRS384, lowest concentration that resulted in intracellular S. aureus eradication. The protocol:
(§1) THP-1 monocytic cell line was grown in media (RMPI+10% FBS+1% Penicillin/Streptomycin), then seeded at a density of 1e5 cells/well in a 96 well plate and differentiated into macrophages for three days prior to infection using 200 nM PMA. An overnight culture of S. aureus NRS384 was grown in RPMI, washed twice with PBS and resuspended at 1e7 cfu/mL in PBS. THP-1 were washed with warm media (RMPI without FBS) to remove the Penicillin/Streptomycin and then infected with the S. aureus suspension at a multiplicity of infection of 10:1 (S. aureus: macrophages). Plates were spun at 300×g for 5 minutes to synchronize adhesion of the bacteria, then incubated at 37° C. for 2 hours. Free-floating bacteria were removed by washing 2× with warm media and remaining extracellular S. aureus were killed by addition of media containing gentamicin (50 ug/mL). After 1 h, media was aspirated and the indicated compound was added to infected macrophages in media containing 50 µg/mL gentamicin to prevent extracellular growth of S. aureus. After 2 h, plates were washed 2× with warm RPMI without FBS, and 100 ul of THP-1 lysis buffer (0.1% Triton in PBS) was added to each well. S. aureus survival was enumerated by colony forming units through serial dilution and plating onto TSA.

In experiment [2] the test system is S. aureus NRS384. In words: Broth minimum inhibitory concentration (MIC) assay 1, S. aureus growth inhibition. To be noted: S. aureus NRS384 in TSB, 24 h at 37° C., OD600 nm; for MIC: Staphylococcus aureus. The procedure:
To test the potency of rifamycin analogs of the disclosure in vitro, a broth growth inhibition assay was developed. For the assay, S. aureus NRS384 was grown in Tryptic Soy Broth (TSB) overnight, then sub-cultured 1:50 in fresh TSB and grown for an additional two hours. The culture was then pelleted via centrifugation and washed twice in PBS. The culture was then diluted to 1×10^4 cfu/mL in TSB and 50 μL of the suspension was added per well to a 96 well microtiter dish in duplicate. A dilution series of the indicated antibiotic (an analog according to the disclosure or a previously known analog Rifampicin) was added 1:1 for a final starting concentration of 1×10^−5 M with 1:3 dilutions. The plates were incubated at 37° C. with shaking for 24 h and then the OD600 nm was read on a Spectramax i3 Minimax 300.
A plot of the S. aureus inhibition assay conducted with rifamycin analogs according to the disclosure is shown as FIG. 1.

Experiment [3] has as its system S. aureus NRS384. The experiment can be described thus: Broth minimum inhibitory concentration (MIC) assay 2. The conditions noted are these: S. aureus NRS384 in TSB, 24 hours at 37° C., OD600, median of at least two independent experiments; for MIC: Staphylococcus aureus, read-out: S. aureus Broth MIC. The protocol: To test the potency of rifamycin analogs of the disclosure in vitro, a broth growth inhibition assay was developed. For the assay, S. aureus NRS384 was grown in Tryptic Soy Broth (TSB) overnight, then sub-cultured 1:50 in fresh TSB and grown for an additional two hours. The culture was then pelleted via centrifugation and washed twice in PBS. The culture was then diluted to 1×10^6 cfu/mL in TSB and 100 μL of the suspension was added per well to a 2 mL dilution plate in triplicate. […] The plates were sealed and incubated at 37° C. with shaking for 24 hours, then 150 μL of each sample was added to 96 well microtiter plates and the OD600 nm was read on a Spectramax i3 Minimax 300.
The broth MIC experiments were assessed in at least two independent experiments and the median value is captured below unless indicated otherwise.

Experiment [4] has as its system intracellular S. aureus NRS384 in THP-1 macrophages. The experiment can be described thus: Intracellular killing assay 2 (rifamycin analogs, S. aureus in THP-1 macrophages). To be noted: lowest concentration giving intracellular S. aureus below limit of detection (50 cfu/mL) in THP-1 macrophages, median of at least two experiments; for MIC: Staphylococcus aureus, NRS384, 2 h, read-out: S. aureus Intracellular killing MIC. The procedure: as §1, with “[…] The compounds were” for “After 1 h, media was aspirated and the indicated compound was”, “added” for “added to infected macrophages”, “hours,” for “h,”
The intracellular MIC value indicated represents the median value of at least two independent experiments, unless indicated otherwise.

In brackets after ≈: the same amount, converted by molar mass. Entries after “also recorded” stand apart in the source; their conditions may differ.

For the molecule `COc1ccc2nc3c4c5c6c(C)c(O)c4c(=O)c(c-3oc2c1)NC(=O)/C(C)=C\C=C\[C@H](C)[C@H](O)[C@@H](C)[C@@H](O)[C@@H](C)[C@H](OC(C)=O)[C@H](C)[C@@H](OC)/C=C/O[C@@](C)(O6)C5=O` [Analog 1a, Rifamycin 4-MeO-Phenol Analogs], the “intracellular S. aureus killing capacity compared to rifampicin (in words)” value in experiment [1] was “increased intracellular S. aureus killing capacity compared to rifampicin”. The MIC in experiment [1] (2 h with compound) came to 1 µM (≈ 0.815 µg/mL); with S. aureus NRS384 [2], 0.014 µM (≈ 0.0114 µg/mL).
In the case of `CO[C@H]1/C=C/O[C@@]2(C)Oc3c(C)c(O)c4c(=O)c(c5oc6cc(OCc7ccccc7)ccc6nc-5c4c3C2=O)NC(=O)/C(C)=C\C=C\[C@H](C)[C@H](O)[C@@H](C)[C@@H](O)[C@@H](C)[C@H](OC(C)=O)[C@@H]1C` [Analog 1b, Rifamycin 4-BnO-Phenol Analogs], the MIC is more than 1 µM in experiment [1] (2 h with compound) and 0.12 µM (≈ 0.107 µg/mL) against S. aureus NRS384 [2].
With `CO[C@H]1/C=C/O[C@@]2(C)Oc3c(C)c(O)c4c(=O)c(c5n(C)c6cc(O)ccc6nc-5c4c3C2=O)NC(=O)/C(C)=C\C=C\[C@H](C)[C@H](O)[C@@H](C)[C@@H](O)[C@@H](C)[C@H](OC(C)=O)[C@@H]1C` [Analog 1d, Rifamycin 4-OH-Phenol N-Methyl analogs], the MIC is more than 1 µM in experiment [1] (2 h with compound) and 0.37 µM (≈ 0.301 µg/mL) in the experiment on S. aureus NRS384 [2].
On to `CO[C@H]1/C=C/O[C@@]2(C)Oc3c(C)c(O)c4c(=O)c(c5oc6cc(OC7CCNCC7)ccc6nc-5c4c3C2=O)NC(=O)/C(C)=C\C=C\[C@H](C)[C@H](O)[C@@H](C)[C@@H](O)[C@@H](C)[C@H](OC(C)=O)[C@@H]1C` [Analog 14], for which the “intracellular S. aureus killing capacity compared to rifampicin (in words)” value in experiment [1] is “increased intracellular S. aureus killing capacity compared to rifampicin”. The MIC in experiment [1] (2 h with compound) was determined as 1 µM (≈ 0.884 µg/mL); in the experiment on S. aureus NRS384 [2] it was 0.041 µM (≈ 0.0362 µg/mL).
For `CO[C@H]1/C=C/O[C@@]2(C)Oc3c(C)c(O)c4c(=O)c(c5oc6cc(OCCN(C)C)ccc6nc-5c4c3C2=O)NC(=O)/C(C)=C\C=C\[C@H](C)[C@H](O)[C@@H](C)[C@@H](O)[C@@H](C)[C@H](OC(C)=O)[C@@H]1C` [Analog 16a] the same measures were “increased intracellular S. aureus killing capacity compared to rifampicin; also recorded: highest activity”, 0.04 µM (≈ 0.0349 µg/mL) and 0.0015 µM (≈ 0.00131 µg/mL).
For `CNCCOc1ccc2nc3c4c5c6c(C)c(O)c4c(=O)c(c-3oc2c1)NC(=O)/C(C)=C\C=C\[C@H](C)[C@H](O)[C@@H](C)[C@@H](O)[C@@H](C)[C@H](OC(C)=O)[C@H](C)[C@@H](OC)/C=C/O[C@@](C)(O6)C5=O` [Analog 16d], in that order: “increased intracellular S. aureus killing capacity compared to rifampicin”, 1 µM (≈ 0.858 µg/mL) and 0.041 µM (≈ 0.0352 µg/mL).
Turning to `CO[C@H]1/C=C/O[C@@]2(C)Oc3c(C)c(O)c4c(=O)c(c5oc6cc(OCCN)ccc6nc-5c4c3C2=O)NC(=O)/C(C)=C\C=C\[C@H](C)[C@H](O)[C@@H](C)[C@@H](O)[C@@H](C)[C@H](OC(C)=O)[C@@H]1C` [Analog 16e], in experiment [1], the “intracellular S. aureus killing capacity compared to rifampicin (in words)” value is “increased intracellular S. aureus killing capacity compared to rifampicin”. Further, the results for the MIC (in experiment [1] (2 h with compound); in the experiment on S. aureus NRS384 [2]) were 1 µM (≈ 0.844 µg/mL) and 0.0046 µM (≈ 0.00388 µg/mL), respectively.
As to `CO[C@H]1/C=C/O[C@@]2(C)Oc3c(C)c(O)c4c(=O)c(c5oc6cc(O)cc(F)c6nc-5c4c3C2=O)NC(=O)/C(C)=C\C=C\[C@H](C)[C@H](O)[C@@H](C)[C@@H](O)[C@@H](C)[C@H](OC(C)=O)[C@@H]1C` [Analog 55a], the MIC with S. aureus NRS384 [3] was 0.0625 µM (≈ 0.0512 µg/mL); in experiment [4], more than 1 µM.
For `CO[C@H]1/C=C/O[C@@]2(C)Oc3c(C)c(O)c4c(=O)c(c5oc6cc(OCCN(C)C)cc(SC)c6nc-5c4c3C2=O)NC(=O)/C(C)=C\C=C\[C@H](C)[C@H](O)[C@@H](C)[C@@H](O)[C@@H](C)[C@H](OC(C)=O)[C@@H]1C` [Analog 60] the same measures were 0.00391 µM (≈ 0.00359 µg/mL) and 0.2 µM (≈ 0.184 µg/mL).
With `CO[C@H]1/C=C/O[C@@]2(C)Oc3c(C)c(O)c4c(=O)c(c5oc6cc(OC7CCN(C)CC7)cc(O)c6nc-5c4c3C2=O)NC(=O)/C(C)=C\C=C\[C@H](C)[C@H](O)[C@@H](C)[C@@H](O)[C@@H](C)[C@H](OC(C)=O)[C@@H]1C` [Analog 68], the MIC with S. aureus NRS384 [3] is 0.0156 µM (≈ 0.0143 µg/mL); in experiment [4], 0.2 µM (≈ 0.183 µg/mL).
For `CO[C@H]1/C=C/O[C@@]2(C)Oc3c(C)c(O)c4c(=O)c(c5oc6cccc(OCCN(C)C)c6nc-5c4c3C2=O)NC(=O)/C(C)=C\C=C\[C@H](C)[C@H](O)[C@@H](C)[C@@H](O)[C@@H](C)[C@H](OC(C)=O)[C@@H]1C` [Analog 71] the same measures were 0.0156 µM (≈ 0.0136 µg/mL) and more than 1 µM.
For `CO[C@H]1/C=C/O[C@@]2(C)Oc3c(C)c(O)c4c(=O)c(c5oc6cc(C#CCN(C)C)ccc6nc-5c4c3C2=O)NC(=O)/C(C)=C\C=C\[C@H](C)[C@H](O)[C@@H](C)[C@@H](O)[C@@H](C)[C@H](OC(C)=O)[C@@H]1C` [Analog 72] the same measures were 0.0625 µM (≈ 0.0541 µg/mL) and more than 1 µM.
For `CO[C@H]1/C=C/O[C@@]2(C)Oc3c(C)c(O)c4c(=O)c(c5oc6cc(CCCN(C)C)ccc6nc-5c4c3C2=O)NC(=O)/C(C)=C\C=C\[C@H](C)[C@H](O)[C@@H](C)[C@@H](O)[C@@H](C)[C@H](OC(C)=O)[C@@H]1C` [Analog 75] the same measures were 0.29 µM (≈ 0.252 µg/mL) and more than 1 µM.
On to `CO[C@H]1/C=C/O[C@@]2(C)Oc3c(C)c(O)c4c(=O)c(c5oc6cccc(O)c6nc-5c4c3C2=O)NCC(=O)/C(C)=C\C=C\[C@H](C)[C@H](O)[C@@H](C)[C@@H](O)[C@@H](C)[C@H](OC(C)=O)[C@@H]1C` [Analog P1], for which, in the experiment on S. aureus NRS384 [3], the “S. aureus Broth MIC” value worked out at 0.0625 µM. In experiment [4], the “S. aureus Intracellular killing MIC” value is 0.2 µM.
For `CO[C@H]1/C=C/O[C@@]2(C)Oc3c(C)c(O)c4c(=O)c(c5oc6cc(F)ccc6nc-5c4c3C2=O)NCC(=O)/C(C)=C\C=C\[C@H](C)[C@H](O)[C@@H](C)[C@@H](O)[C@@H](C)[C@H](O)[C@@H]1C` [Analog P2] the same measures were 0.0625 µM and more than 1 µM.
Regarding `CO[C@H]1/C=C/O[C@@]2(C)Oc3c(C)c(O)c4c(O)c(c(/C=N/N5CCN(C)CC5)c(O)c4c3C2=O)NC(=O)/C(C)=C\C=C\[C@H](C)[C@H](O)[C@@H](C)[C@@H](O)[C@@H](C)[C@H](OC(C)=O)[C@@H]1C` [Rifampicin, rifampicin, reference compound], in experiment [1] (lowest concentration that resulted in intracellular S. aureus eradication, 2 h with compound), the “Intracellular killing MIC” value is recorded as more than 1.0E−06. In addition, the MIC with S. aureus NRS384 [3] came out at 0.00391 µM (≈ 0.00322 µg/mL); in experiment [4], 1 µM (≈ 0.823 µg/mL). Further, in the experiment on S. aureus NRS384 [2], the “S. aureus Broth MIC” value was found to be 0.0046 µM.
